Measurements from patent US10617140B2, “Iron-fortified food composition” (NESTEC S.A., priority 2015, dated 2020).

Assay: Fortification of water: iron content on storage, ICP-AES (Example 7)
Assay type: physicochemical
Protocol: Processed water enriched with 20-30 ppm of sodium and potassium (600 mL) was iron fortified by the addition of different iron ingredients as reported in Table 10. The amounts were chosen to provide approximately 2.1 mg of iron per litre of water. The water was stored in an oven at 40° C. for 18 weeks. The iron content was measured for each sample through ICP-AES.

## Ferrous sulfate
Processed water fortified at approx. 2.1 mg iron per litre, stored at 40° C., ICP-AES, week 1
  Iron content, Week 1: 0 (Precipitate)
Processed water fortified at approx. 2.1 mg iron per litre, stored at 40° C., ICP-AES, week 18
  Iron content, Week 18: 0 (Precipitate)
Processed water stored at 40° C., up to 18 weeks
  Behaviour in fortified water (precipitation / remaining in solution): precipitates almost instantaneously
